# From BindingDB's records for doi:10.1021/jm00378a002 (1985)
# Target: uridine-cytidine kinase (Mus musculus)
# Experiment: Binding affinity to uridine kinase from L1210. was determined from the dixon plot
smiles,measurement,value
"O=c1ccn([C@@H]2C=C(CO)[C@@H](O)[C@H]2O)c(=O)[nH]1 [1-(4,5-Dihydroxy-3-hydroxymethyl-cyclopent-2-enyl)-4-hydroxy-1H-pyrimidin-2-one]",Ki,230 µM
